Experimental data taken from patent US20030166653A1, “Novel form of (r)-n-[5-methyl-8-(4-methylpiperazin-1-yl)-1,2,3,4-tetrahydro-2-naphthyl]-4-morpholinobenzamide” (priority 2003, published 2003).
Values after ≈ are worked out from the molar mass of the structure shown.

Legend:
Assay type in all cases: physicochemical
[1] = Solubility in water by HPLC-analysis; conditions: as the free base by HPLC-analysis
[2] = Stability in water solutions (pH not adjusted), HPLC assay
Source text: (§1) The stability of [5-Methyl-8-(4-methylpiperazin-1-yl)-1,2,3,4-tetrahydro-2-naphtyl]-4-morpholinobenzamide(=“Base” in tables below) and (R)-N-[5-methyl-8-(4-methylpiperazin-1-yl)-1,2,3,4-tetrahydro-2-naphtyl]-4-morpholinobenzamide monohydrobromide Form A (=“Form A” in tables below), as bulk drug substance and in solutions at different pH levels after exposure to daylight and at elevated temperatures, has been studied. Three solutions were made from each batch of drug substance. One solution in pure water, one in 0.1 mM HCl (pH 4.1) and one in 0.1 M HCl (pH 1.1). The content of [5-Methyl-8-(4-methylpiperazin-1-yl)-1,2,3,4-tetrahydro-2-naphtyl]-4-morpholinobenzamide (=Base) was determined by HPLC, all results are calculated as the base.

[3] = Stability of solution in 0.1 M HCl, pH 1.1, HPLC assay
Source text: as §1

[4] = Stability of bulk drug substance (HPLC purity) in daylight and at 90° C.; conditions: for HPLC Purity (100% - related substances): bulk
Experimental: The stability of [5-Methyl-8-(4-methylpiperazin-1-yl)-1,2,3,4-tetrahydro-2-naphtyl]-4-morpholinobenzamide(=“Base” in tables below) and (R)-N-[5-methyl-8-(4-methylpiperazin-1-yl)-1,2,3,4-tetrahydro-2-naphtyl]-4-morpholinobenzamide monohydrobromide Form A (=“Form A” in tables below), as bulk drug substance and in solutions at different pH levels after exposure to daylight and at elevated temperatures, has been studied. The bulk substances are very stable, both in daylight and at 90° C. There are no significant differences between the HPLC purity of [5-Methyl-8-(4-methylpiperazin-1-yl)-1,2,3,4-tetrahydro-2-naphtyl]-4-morpholinobenzamide (=Base) and (R)-N-[5-methyl-8-(4-methylpiperazin-1-yl)-1,2,3,4-tetrahydro-2-naphtyl]-4-morpholinobenzamide monohydrobromide Form A (=Form A) at the tested conditions.

[5] = Stability of solution in 0.1 mM HCl, pH 4.1, HPLC assay
Source text: as §1

[6] = daylight RT, 14 days, % of start
[7] = daylight RT, 23 days, % of start

solubility in water [1]: 0.034 mg/mL (≈ 75.8 µM) | Stability in water solutions, assay ([2]; 5° C., 8 days, % of start): 101% | Stability in water solutions, assay ([2]; 5° C., 14 days, % of start): 101% | Stability in water solutions, assay ([2]; 5° C., 23 days, % of start): 102% | Stability in water solutions, assay ([2]; 5° C., Start): 0.00698 mg base/ml | Stability in water solutions, assay ([2]; 5° C., Start, % of start): (100%) | Stability in water solutions, assay ([2]; 60° C., 2 days, % of start): 105% | Stability in water solutions, assay ([2]; 60° C., 8 days, % of start): 104% | Stability in water solutions, assay ([2]; 60° C., 14 days, % of start): 106% | Stability in water solutions, assay ([2]; 60° C., 23 days, % of start): 102% | Stability in water solutions, assay ([2]; 60° C., Start): 0.00698 mg base/ml | Stability in water solutions, assay ([2]; 60° C., Start, % of start): (100%) | Stability in water solutions, assay ([2]; Dark RT, 8 days, % of start): 94% | Stability in water solutions, assay ([2]; Dark RT, 14 days, % of start): 94% | Stability in water solutions, assay ([2]; Dark RT, 23 days, % of start): 95% | Stability in water solutions, assay ([2]; Dark RT, Start): 0.00698 mg base/ml | Stability in water solutions, assay ([2]; Dark RT, Start, % of start): (100%) | Stability in water solutions, assay ([2]; daylight RT, 8 days, % of start): 95% | Stability in water solutions, assay [2, 6]: 94% | Stability in water solutions, assay [2, 7]: 91% | Stability in water solutions, assay ([2]; daylight RT, Start): 0.00698 mg base/ml | Stability in water solutions, assay ([2]; daylight RT, Start, % of start): (100%) | stability in pure water solution, comparison in words ([2]; room temperature, pH not adjusted): less stable than Form A | Solution in 0.1 M HCl, pH 1.1, assay ([3]; 5° C., 8 days, % of start): 99% | Solution in 0.1 M HCl, pH 1.1, assay ([3]; 5° C., 14 days, % of start): 100% | Solution in 0.1 M HCl, pH 1.1, assay ([3]; 5° C., 23 days, % of start): 97% | Solution in 0.1 M HCl, pH 1.1, assay ([3]; 5° C., Start): 0.479 mg base/ml | Solution in 0.1 M HCl, pH 1.1, assay ([3]; 5° C., Start, % of start): (100%) | Solution in 0.1 M HCl, pH 1.1, assay ([3]; 60° C., 2 days, % of start): 98% | Solution in 0.1 M HCl, pH 1.1, assay ([3]; 60° C., 8 days, % of start): 96% | Solution in 0.1 M HCl, pH 1.1, assay ([3]; 60° C., 14 days, % of start): 91% | Solution in 0.1 M HCl, pH 1.1, assay ([3]; 60° C., 23 days, % of start): 83% | Solution in 0.1 M HCl, pH 1.1, assay ([3]; 60° C., Start): 0.479 mg base/ml | Solution in 0.1 M HCl, pH 1.1, assay ([3]; 60° C., Start, % of start): (100%) | Solution in 0.1 M HCl, pH 1.1, assay ([3]; Dark RT, 8 days, % of start): 100% | Solution in 0.1 M HCl, pH 1.1, assay ([3]; Dark RT, 14 days, % of start): 100% | Solution in 0.1 M HCl, pH 1.1, assay ([3]; Dark RT, 23 days, % of start): 98% | Solution in 0.1 M HCl, pH 1.1, assay ([3]; Dark RT, Start): 0.479 mg base/ml | Solution in 0.1 M HCl, pH 1.1, assay ([3]; Dark RT, Start, % of start): (100%) | Solution in 0.1 M HCl, pH 1.1, assay [3, 6]: 100% | Solution in 0.1 M HCl, pH 1.1, assay [3, 7]: 98% | Solution in 0.1 M HCl, pH 1.1, assay ([3]; daylight RT, Start): 0.479 mg base/ml | Solution in 0.1 M HCl, pH 1.1, assay ([3]; daylight RT, Start, % of start): (100%) | stability in solution, comparison in words ([3]; pH 1.1, 60° C.): less stable than Form A | stability in solution in words ([3]; pH 1.1, except at 60° C.): good | HPLC Purity (100% - related substances) ([4]; 90° C., 2 days): 99.9% | HPLC Purity (100% - related substances) ([4]; 90° C., 8 days): 99.9% | HPLC Purity (100% - related substances) ([4]; 90° C., 14 days): 99.9% | HPLC Purity (100% - related substances) ([4]; 90° C., 21 days): 99.9% | HPLC Purity (100% - related substances) ([4]; 90° C., 30 days): 99.9% | HPLC Purity (100% - related substances) ([4]; 90° C., Start): 100% | HPLC Purity (100% - related substances) ([4]; daylight, RT, 8 days): 99.9% | HPLC Purity (100% - related substances) ([4]; daylight, RT, 14 days): 99.9% | HPLC Purity (100% - related substances) ([4]; daylight, RT, 21 days): 99.9% | HPLC Purity (100% - related substances) ([4]; daylight, RT, 30 days): 99.9% | HPLC Purity (100% - related substances) ([4]; daylight, RT, Start): 100% | stability of bulk substance in words ([4]; in daylight and at 90° C.): very stable | Solution in 0.1 mM HCl, pH 4.1, assay ([5]; 5° C., 8 days, % of start): 100% | Solution in 0.1 mM HCl, pH 4.1, assay ([5]; 5° C., 14 days, % of start): 99% | Solution in 0.1 mM HCl, pH 4.1, assay ([5]; 5° C., 23 days, % of start): 99% | Solution in 0.1 mM HCl, pH 4.1, assay ([5]; 5° C., Start): 0.0443 mg base/ml | Solution in 0.1 mM HCl, pH 4.1, assay ([5]; 5° C., Start, % of start): (100%) | Solution in 0.1 mM HCl, pH 4.1, assay ([5]; 60° C., 2 days, % of start): 96% | Solution in 0.1 mM HCl, pH 4.1, assay ([5]; 60° C., 8 days, % of start): 93% | Solution in 0.1 mM HCl, pH 4.1, assay ([5]; 60° C., 14 days, % of start): 67% | Solution in 0.1 mM HCl, pH 4.1, assay ([5]; 60° C., 23 days, % of start): 57% | Solution in 0.1 mM HCl, pH 4.1, assay ([5]; 60° C., Start): 0.0443 mg base/ml | Solution in 0.1 mM HCl, pH 4.1, assay ([5]; 60° C., Start, % of start): (100%) | Solution in 0.1 mM HCl, pH 4.1, assay ([5]; Dark RT, 8 days, % of start): 99% | Solution in 0.1 mM HCl, pH 4.1, assay ([5]; Dark RT, 14 days, % of start): 98% | Solution in 0.1 mM HCl, pH 4.1, assay ([5]; Dark RT, 23 days, % of start): 97% | Solution in 0.1 mM HCl, pH 4.1, assay ([5]; Dark RT, Start): 0.0443 mg base/ml | Solution in 0.1 mM HCl, pH 4.1, assay ([5]; Dark RT, Start, % of start): (100%) | Solution in 0.1 mM HCl, pH 4.1, assay [5, 6]: 98% | Solution in 0.1 mM HCl, pH 4.1, assay [5, 7]: 98% | Solution in 0.1 mM HCl, pH 4.1, assay ([5]; daylight RT, Start): 0.0443 mg base/ml | Solution in 0.1 mM HCl, pH 4.1, assay ([5]; daylight RT, Start, % of start): (100%) | stability in solution, comparison in words ([5]; pH 4.1, 60° C. (more pronounced than at pH 1.1)): less stable than Form A | stability in solution in words ([5]; pH 4.1, except at 60° C.): good
SMILES: Cc1ccc(N2CCN(C)CC2)c2c1CCC(NC(=O)c1ccc(N3CCOCC3)cc1)C2 (stereo not shown) [Base, [5-Methyl-8-(4-methylpiperazin-1-yl)-1,2,3,4-tetrahydro-2-naphtyl]-4-morpholinobenzamide]
